In patent US5721214A, “Inhibitors of factor Xa” (COR Therapeutics, Inc., priority 1995, dated 1998):
Like-named read-outs stand apart in the source and are kept apart here. Numbered stars: 1 amine (or outer) side, 2 acyl side, 3 side chain; on linkers, the order of the positions; unused ones are H or OH. Square brackets hold non-standard residues; d marks the D form. Peptide text beside a SMILES is read from it. * marks the point of attachment. d(hArg) = N=C(N)NCCCC[C@@H](N)C(=O)O; Hydrocinnamoyl = O=C(CCc1ccccc1)*; dCit = NC(=O)NCCC[C@@H](N)C(=O)O; Suc = O=C(CCC(=O)[*:2])[*:1]; Boc = CC(C)(C)OC(=O)*; Aib = CC(C)(N)C(=O)O

Legend:
[1] = target: factor Xa (Homo sapiens, UniProt P00742); test: Factor Xa amidolytic assay (chromogenic substrate S-2765); format: biochemical
factor Xa, sequence (P00742 235-488 limits assumed): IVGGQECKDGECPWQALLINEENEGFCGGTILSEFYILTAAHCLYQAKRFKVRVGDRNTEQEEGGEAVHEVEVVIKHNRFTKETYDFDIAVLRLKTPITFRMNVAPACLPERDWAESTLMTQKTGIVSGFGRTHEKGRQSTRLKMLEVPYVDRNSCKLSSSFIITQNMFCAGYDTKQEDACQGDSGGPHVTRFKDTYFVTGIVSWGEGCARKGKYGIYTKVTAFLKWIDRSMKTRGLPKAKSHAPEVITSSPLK
factor Xa, sequence (P00742 41-179 limits assumed): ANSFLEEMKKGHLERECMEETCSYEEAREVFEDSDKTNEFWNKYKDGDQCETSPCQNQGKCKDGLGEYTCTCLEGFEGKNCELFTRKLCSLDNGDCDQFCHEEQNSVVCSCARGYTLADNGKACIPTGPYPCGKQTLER

[2] = target: prothrombinase complex (Homo sapiens, UniProt P00742); test: Prothrombinase inhibition assay, plasma free system; format: biochemical; settings: 5 min preincubation, factor Xa 0.5 nM, factor Va 2 nM, pH 7.5; read-out: Inhibitory Activity (IC50) Prothrombinase
prothrombinase complex, sequence (P00742 235-488 limits assumed): as the sequence (P00742 235-488 limits assumed) above
prothrombinase complex, sequence (P00742 41-179 limits assumed): as the sequence (P00742 41-179 limits assumed) above

[3] = target: T1, thrombin (Homo sapiens, UniProt P00734); test: Thrombin amidolytic assay (Chromozym TH); format: biochemical
T1 construct: The formation of thrombin is the result of the proteolytic cleavage of its precursor prothrombin

[4] = Pharmacokinetics/Pharmacodynamics in rabbits after I.V. bolus; format: in vivo; settings: rabbit
[5] = system: thrombus growth in abdominal vena cava; test: Rabbit deep vein thrombosis model; format: in vivo; settings: for Hct / PLT / RBC / WBC: mean±SD
From the text: Haemost. […] Rabbits were anesthetized with I.M. injections of Ketamine, Xylazine, and Acepromazine cocktail.

[6] = 5 min preincubation, room temperature, pH 7.5, read-out: Inhibitory Activity (IC50) Factor Xa
[7] = 5 min preincubation, room temperature, pH 7.5, read-out: Inhibitory Activity (IC50) Thrombin

In the case of `CC(C)(C)OC(=O)N[C@H](CCCNC(N)=O)C(=O)NCC(=O)N[C@H](C=O)CCCN=C(N)N` [Boc--D--Cit--Gly--Arg--H, Boc-D-Cit-Gly-Arg-H] (Boc-[dCit]-Gly-Arg-aldehyde), the IC50 [1] is reported as 5 µM and the IC50 [2] is reported as 44 µM.
Work on `N=C(N)NCCC[C@@H](C=O)NC(=O)CNC(=O)[C@@H](CCCNC(=N)N)NC(=O)CCc1ccccc1` [PhCH2 CH2 CO--D--Arg--Gly--Arg--H, 3-Phenylpropanoyl-D-Arg-Gly-Arg-H] (Hydrocinnamoyl-[dR]-Gly-Arg-aldehyde) yielded an IC50 [1, 6] of 0.2 µM, an IC50 [2] of 2 µM and an IC50 [3, 7] of 75 µM.
Compound `NC(N)=NCCC[C@@H](C=O)NC(=O)CNC(=O)[C@H](N)CCCN=C(N)N` [H--D--Arg--Gly--Arg--H, D-Arg-Gly-Arg-H] (H-[dR]-Gly-Arg-aldehyde) has an IC50 [1] of 0.064 µM, an IC50 [2] of 0.83 µM and an IC50 [3] of 41 µM.
With `CCOC(=O)N[C@H](CCCN=C(N)N)C(=O)NCC(=O)N[C@H](C=O)CCCN=C(N)N` [EtOCO--D--Arg--Gly--Arg--H, EtO2 C-D-Arg-Gly-Arg-H] the IC50 [1] was 0.049 µM.
For `CC(C)(C)OC(=O)N[C@H](CCCN=C(N)N)C(=O)NCC(=O)N[C@H](C=O)CCCN=C(N)N` [Boc--D--Arg--Gly--Arg--H, Boc-D-Arg-Gly-Arg-H] (Boc-[dR]-Gly-Arg-aldehyde), the “changes in hematological parameters as compared to saline controls” value ([4]; 2.0 mg/kg I.V. bolus) was “no significant changes”, the “mean clearance value (CL)” value ([4]; I.V.) was 0.0696 L/h/kg and the volume of distribution ([4]; I.V.) was 0.1183 L/kg. For the same compound, the mean plasma half-life ([4]; I.V., n=3) was 1.18 h, the Hct ([5]; 200 + 1.98 μg/kg + μg/kg/min) was 36.9 ± 3.90% and the PLT ([5]; 200 + 1.98 μg/kg + μg/kg/min) was 393 ± 84 10^3 /μL. The RBC ([5]; 200 + 1.98 μg/kg + μg/kg/min) was 5.69 ± 0.14 10^6 /μL, the WBC ([5]; 200 + 1.98 μg/kg + μg/kg/min) was 4.45 ± 0.97 10^3 /μL and the Hct ([5]; 600 + 5.94 μg/kg + μg/kg/min) was 35.3 ± 3.01%. For the same compound, the PLT ([5]; 600 + 5.94 μg/kg + μg/kg/min) was 442 ± 81 10^3 /μL, the RBC ([5]; 600 + 5.94 μg/kg + μg/kg/min) was 5.74 ± 0.48 10^6 /μL and the WBC ([5]; 600 + 5.94 μg/kg + μg/kg/min) was 3.87 ± 0.65 10^3 /μL. The Hct ([5]; 1000 + 9.90 μg/kg + μg/kg/min) was 35.5 ± 1.01%, the PLT ([5]; 1000 + 9.90 μg/kg + μg/kg/min) was 375 ± 73 10^3 /μL and the RBC ([5]; 1000 + 9.90 μg/kg + μg/kg/min) was 5.71 ± 0.28 10^6 /μL. The WBC ([5]; 1000 + 9.90 μg/kg + μg/kg/min) was 5.09 ± 1.61 10^3 /μL, the Hct ([5]; 1500 + 14.85 μg/kg + μg/kg/min) was 36.0 ± 3.31% and the PLT ([5]; 1500 + 14.85 μg/kg + μg/kg/min) was 433 ± 22 10^3 /μL. For the same compound, the RBC ([5]; 1500 + 14.85 μg/kg + μg/kg/min) was 5.80 ± 0.50 10^6 /μL, the WBC ([5]; 1500 + 14.85 μg/kg + μg/kg/min) was 4.82 ± 1.01 10^3 /μL and the “effects on hematological parameters as compared to saline controls” value ([5]; bolus + infusion) was “no significant effects”.
With `N=C(N)NCCC[C@@H](C=O)NC(=O)CNC(=O)[C@@H](CCCNC(=N)N)NC(=O)C(=O)O` [HOOCCO--D--Arg--Gly--Arg--H, Oxaloyl-D-Arg-Gly-Arg-H] the IC50 [2] was 0.63 µM.
Work on `CN(C)C(=NCCCC[C@@H](NC(=O)OC(C)(C)C)C(=O)NCC(=O)N[C@H](C=O)CCCNC(=N)N)N(C)C` [Boc--D--Har((CH3)4)--Gly--Arg--H, Boc-D-Har((CH3)4)-Gly-Arg-H] yielded an IC50 [3, 7] of over 100 µM.
Compound `N=C(N)NCCC[C@@H](C=O)NC(=O)CNC(=O)[C@@H](CCCNC(=N)N)NC(=O)CCC(=O)O` [HOOC(CH2)2 CO--D--Arg--Gly--Arg--H, Succinoyl-D-Arg-Gly-Arg-H] (Suc-[dR]-Gly-Arg-aldehyde) has an IC50 [1, 6] of 0.224 µM.
For `N=C(N)NCCC[C@@H](C=O)NC(=O)CNC(=O)[C@@H](CCCNC(=N)N)NC(=O)COc1ccc2ccccc2c1` [2-NaphthoxyAc--D--Arg--Gly--Arg--H, 2-Napthoxyacetyl-D-Arg-Gly-Arg-H], the IC50 [3] was over 100 µM.
In the case of `C[C@@H](NC(=O)[C@@H](CCCNC(=N)N)NC(=O)OC(C)(C)C)C(=O)N[C@H](C=O)CCCNC(=N)N` [Boc--D--Arg--D--Ala--Arg--H, Boc-D-Arg-D-Ala-Arg-H] (Boc-[dR]-[dA]-Arg-aldehyde), the IC50 [1, 6] is reported as 0.23 µM.
With `CC(C)(C)OC(=O)N[C@H](CCCCNC(=N)N)C(=O)NCC(=O)N[C@H](C=O)CCCNC(=N)N` [Boc--D--Har--Gly--Arg--H, Boc-D-Har-Gly-Arg-H] (Boc-[d(hArg)]-Gly-Arg-aldehyde) the IC50 [1, 6] was 0.1 µM, the IC50 [2] was 0.173 µM and the IC50 [3, 7] was 405 µM.
For `N=C(N)NCCC[C@@H](C=O)NC(=O)CNC(=O)[C@@H](CCCNC(=N)N)NC(=O)CC(=O)O` [HOOCCH2 CO--D--Arg--Gly--Arg--H, Malonoyl-D-Arg-Gly-Arg-H], the IC50 [1] was 0.098 µM.
In the case of `CC(C)(C)OC(=O)N[C@H](CCCNC(=N)N)C(=O)NCC(=O)N[C@H](C=O)CCCNC(=N)N` [Boc--D--Arg--Gly--Arg--H, Boc-D-Arg-Gly-Arg-H] (Boc-[dR]-Gly-Arg-aldehyde), the IC50 [1, 6] is reported as 0.05 µM, the anticoagulative effect ([4]; 2.0 mg/kg I.V. bolus) is reported as “plasma concentration-dependent anticoagulative effect” and the “% Inhibition of Thrombosis” value ([5]; 200 + 1.98 μg/kg + μg/kg/min) is reported as 8.4%. For the same compound, the “% Inhibition of Thrombosis” value ([5]; 600 + 5.94 μg/kg + μg/kg/min) was -6.6%, the “% Inhibition of Thrombosis” value ([5]; 1000 + 9.90 μg/kg + μg/kg/min) was 58.6% and the “% Inhibition of Thrombosis” value ([5]; 1500 + 14.85 μg/kg + μg/kg/min) was 31.4%. For the same compound, the “antithrombotic efficacy in the rabbit venous thrombosis model” value ([5]; bolus + infusion, all doses evaluated) was “demonstrated antithrombotic efficacy at the higher doses evaluated”.
Work on `CC(C)(C)OC(=O)N[C@H](CCCNC(=N)N)C(=O)NCCC(=O)N[C@H](C=O)CCCNC(=N)N` [Boc--D--Arg--β-Ala--Arg--H, Boc-D-Arg-β-Ala-Arg-H] yielded an IC50 [3, 7] of over 500 µM.
`N=C(N)NCCC[C@@H](C=O)NC(=O)CNC(=O)[C@@H](CCCNC(=N)N)NS(=O)(=O)Cc1ccccc1` [PhCH2 SO2 --D--Arg--Gly--Arg--H, Benzylsulfonyl-D-Arg-Gly-Arg-H] showed an IC50 [3] of 33 µM.
`CC(C)(C)OC(=O)N[C@H](CCCCN)C(=O)NCC(=O)N[C@H](C=O)CCCNC(=N)N` [Boc--D--Lys--Gly--Arg--H, Boc-D-Lys-Gly-Arg-H] (Boc-[dK]-Gly-Arg-aldehyde) gave an IC50 [1, 6] of 10 µM.
Compound `C[C@H](NC(=O)[C@@H](CCCNC(=N)N)NC(=O)OC(C)(C)C)C(=O)N[C@H](C=O)CCCNC(=N)N` [Boc--D--Arg--Ala--Arg--H, Boc-D-Arg-Ala-Arg-H] (Boc-[dR]-Ala-Arg-aldehyde) has an IC50 [1, 6] of 0.167 µM.
In the case of `CC(C)(C)OC(=O)N[C@H](CCCNC(=N)N)C(=O)NC(C)(C)C(=O)N[C@H](C=O)CCCNC(=N)N` [Boc--D--Arg--Aib--Arg--H, Boc-D-Arg-Aib-Arg-H] (Boc-[dR]-[Aib]-Arg-aldehyde), the IC50 [1, 6] is reported as 0.552 µM.
